Experimental data taken from ChEMBL document CHEMBL1201862, “PubChem BioAssay data set” (2004).
Activity calls are given as the source filed them.

Assays:
[1] = molecular target: T1, RNA-binding protein pos-1 (Caenorhabditis elegans, UniProt G5EF15); test: disruptors of C. elegans POS-1 RNA interaction – biochemical, fluorescence polarization, dose response (AID 1964);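 further: purified POS-1 fused to maltose binding protein made in E. coli; potency of compounds blocking POS-1 binding to fluorescent RNA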
T1 sequence (G5EF15 whole entry): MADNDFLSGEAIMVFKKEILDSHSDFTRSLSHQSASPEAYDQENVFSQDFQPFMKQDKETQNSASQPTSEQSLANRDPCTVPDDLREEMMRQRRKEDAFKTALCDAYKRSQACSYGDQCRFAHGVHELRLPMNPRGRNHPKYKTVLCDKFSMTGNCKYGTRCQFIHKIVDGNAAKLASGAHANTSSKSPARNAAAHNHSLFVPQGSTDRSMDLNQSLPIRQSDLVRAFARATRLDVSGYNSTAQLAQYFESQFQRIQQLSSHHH

[2] = molecular target: T2, Zinc finger protein mex-5 (Caenorhabditis elegans, UniProt Q9XUB2); test: potency of MEX-5 RNA-binding blockers – biochemical, C. elegans, fluorescence polarization, dose response (AID 1960)
T2 sequence (Q9XUB2 whole entry): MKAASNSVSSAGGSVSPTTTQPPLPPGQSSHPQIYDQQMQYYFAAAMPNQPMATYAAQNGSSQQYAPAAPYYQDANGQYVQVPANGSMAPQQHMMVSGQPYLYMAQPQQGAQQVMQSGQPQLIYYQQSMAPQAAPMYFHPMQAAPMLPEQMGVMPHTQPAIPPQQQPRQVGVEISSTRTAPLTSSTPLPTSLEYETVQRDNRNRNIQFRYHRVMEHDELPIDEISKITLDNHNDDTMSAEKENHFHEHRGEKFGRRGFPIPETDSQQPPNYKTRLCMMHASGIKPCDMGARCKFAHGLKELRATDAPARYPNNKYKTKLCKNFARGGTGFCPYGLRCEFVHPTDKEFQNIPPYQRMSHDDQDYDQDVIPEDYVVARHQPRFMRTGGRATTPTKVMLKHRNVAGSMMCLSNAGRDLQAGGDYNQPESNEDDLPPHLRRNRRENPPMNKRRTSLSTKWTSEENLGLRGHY

Cytochrome P450 2C19 = Cytochrome P450 2C19 (Homo sapiens, UniProt P33261); test: Cytochrome panel assay with activity outcomes. Panel member name: p450-cyp2c19 Compounds with AC50 equal or less than 10 uM are considered active; type: functional; conditions: read-out: AC50
Cytochrome P450 2C9 = Cytochrome P450 2C9 (Homo sapiens, UniProt P11712)
H9c2 = test: cells; type: functional, cell-based; conditions: Rattus norvegicus, H9c2, Myocardium;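 further: confirmatory concentration-response retest of ultra-high-throughput screening hits for modulation of myocardial damage; cell death induced by hydrogen peroxide oxidative stress; compound pretreatment for 60 min then peroxide exposure for 2 h; potency is for protecting the cells against peroxide damage rather than for killing them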
[3] = molecular target: T3, Replicative DNA helicase DnaB (Mycobacterium tuberculosis, UniProt P9WMR3); test: DnaB intein splicing inhibitors, dose response, biochemical, cell-free fluorescence (AID 449749); type: functional
T3 sequence (P9WMR3 whole entry): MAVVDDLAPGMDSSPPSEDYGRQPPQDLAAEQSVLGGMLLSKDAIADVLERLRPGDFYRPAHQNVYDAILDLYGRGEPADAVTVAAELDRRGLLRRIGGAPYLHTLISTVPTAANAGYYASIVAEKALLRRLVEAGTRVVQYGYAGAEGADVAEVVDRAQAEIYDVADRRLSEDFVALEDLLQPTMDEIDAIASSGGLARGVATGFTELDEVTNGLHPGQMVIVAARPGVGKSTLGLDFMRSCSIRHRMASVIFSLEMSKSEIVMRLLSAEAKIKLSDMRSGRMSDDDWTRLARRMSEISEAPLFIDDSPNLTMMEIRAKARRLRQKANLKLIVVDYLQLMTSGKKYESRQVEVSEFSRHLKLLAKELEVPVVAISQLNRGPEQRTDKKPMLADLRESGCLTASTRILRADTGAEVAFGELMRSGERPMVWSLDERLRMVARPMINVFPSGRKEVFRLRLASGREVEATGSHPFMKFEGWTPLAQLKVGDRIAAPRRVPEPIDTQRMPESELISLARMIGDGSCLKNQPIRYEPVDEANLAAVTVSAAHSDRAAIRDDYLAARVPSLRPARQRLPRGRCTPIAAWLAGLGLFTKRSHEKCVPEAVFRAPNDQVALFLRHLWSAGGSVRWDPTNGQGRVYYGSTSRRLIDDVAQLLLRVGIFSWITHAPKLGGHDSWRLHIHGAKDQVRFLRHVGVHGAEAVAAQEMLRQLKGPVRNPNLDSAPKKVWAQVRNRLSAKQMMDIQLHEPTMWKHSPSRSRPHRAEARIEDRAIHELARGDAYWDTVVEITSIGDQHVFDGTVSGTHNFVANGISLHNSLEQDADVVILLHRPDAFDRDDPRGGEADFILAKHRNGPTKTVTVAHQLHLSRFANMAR

Protein RecA = molecular target: T4, Protein RecA (Mycobacterium tuberculosis, UniProt P9WHJ3); test: Fluorescence Cell-Free Homogeneous Dose Retest to Identify Inhibitors of RecA-Intein Splicing Activity. [Related pubchem assays (depositor defined):AID2097, AID2223, AID489010, AID492950]; type: functional
T4 sequence (P9WHJ3 whole entry): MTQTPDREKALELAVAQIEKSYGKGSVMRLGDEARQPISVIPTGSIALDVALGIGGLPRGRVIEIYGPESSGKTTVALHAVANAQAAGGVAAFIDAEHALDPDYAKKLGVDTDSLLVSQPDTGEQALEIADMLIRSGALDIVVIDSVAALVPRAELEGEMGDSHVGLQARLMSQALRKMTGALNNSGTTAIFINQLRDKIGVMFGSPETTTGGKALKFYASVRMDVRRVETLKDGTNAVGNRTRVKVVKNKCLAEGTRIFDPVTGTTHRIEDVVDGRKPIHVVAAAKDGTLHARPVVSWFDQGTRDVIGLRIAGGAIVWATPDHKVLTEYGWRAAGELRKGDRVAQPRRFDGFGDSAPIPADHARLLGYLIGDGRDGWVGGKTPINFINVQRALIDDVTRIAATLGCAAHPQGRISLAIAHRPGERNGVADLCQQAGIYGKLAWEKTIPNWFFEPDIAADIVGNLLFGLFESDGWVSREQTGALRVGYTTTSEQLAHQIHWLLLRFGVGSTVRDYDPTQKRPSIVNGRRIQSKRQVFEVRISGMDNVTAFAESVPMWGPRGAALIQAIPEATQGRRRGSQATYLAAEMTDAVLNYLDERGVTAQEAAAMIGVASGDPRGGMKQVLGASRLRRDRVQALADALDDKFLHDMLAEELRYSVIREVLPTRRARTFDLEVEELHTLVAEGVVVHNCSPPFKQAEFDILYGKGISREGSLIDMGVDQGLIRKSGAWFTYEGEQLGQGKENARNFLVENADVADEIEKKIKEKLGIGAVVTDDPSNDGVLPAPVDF

[4] = Luminescence Cell-Based Dose Response HTS to Identify Activators of Luciferase Translation or Activity in H4 […] Cells. [Related pubchem assays: 1829 (Project Summary), 1814 (Primary HTS)]; type: functional
H4 = test: Luminescence Cell-Based Dose Response HTS to Identify Activators of 5'UTR Stem-Loop Driven Prion Protein mRNA Translation in H4 Neuroglioblastoma Cells. [Related pubchem assays: 1829 (Project Summary), 1814 (Primary HTS)]; type: functional; conditions: Homo sapiens
[5] = molecular target: T5, Corticotropin-releasing factor receptor 2/Corticotropin-releasing factor-binding protein (Homo sapiens, UniProt P24387+Q13324); test: activators of CRF receptor 2 with binding protein – uHTS hits, confirmation (AID 602473); type: functional; conditions: read-out: EC50_Mean
T5 sequence (Q13324 whole entry): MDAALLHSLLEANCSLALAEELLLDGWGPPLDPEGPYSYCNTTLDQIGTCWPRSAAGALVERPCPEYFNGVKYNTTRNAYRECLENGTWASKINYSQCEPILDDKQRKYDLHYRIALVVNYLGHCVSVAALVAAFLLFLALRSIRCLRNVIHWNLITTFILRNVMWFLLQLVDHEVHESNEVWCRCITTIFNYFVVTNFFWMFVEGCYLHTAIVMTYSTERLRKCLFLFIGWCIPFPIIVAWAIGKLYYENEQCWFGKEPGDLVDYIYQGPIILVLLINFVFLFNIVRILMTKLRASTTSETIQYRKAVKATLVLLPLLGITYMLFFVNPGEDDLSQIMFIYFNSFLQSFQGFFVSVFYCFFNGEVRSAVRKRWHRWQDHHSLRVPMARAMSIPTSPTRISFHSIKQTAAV
T5 sequence (P24387 whole entry): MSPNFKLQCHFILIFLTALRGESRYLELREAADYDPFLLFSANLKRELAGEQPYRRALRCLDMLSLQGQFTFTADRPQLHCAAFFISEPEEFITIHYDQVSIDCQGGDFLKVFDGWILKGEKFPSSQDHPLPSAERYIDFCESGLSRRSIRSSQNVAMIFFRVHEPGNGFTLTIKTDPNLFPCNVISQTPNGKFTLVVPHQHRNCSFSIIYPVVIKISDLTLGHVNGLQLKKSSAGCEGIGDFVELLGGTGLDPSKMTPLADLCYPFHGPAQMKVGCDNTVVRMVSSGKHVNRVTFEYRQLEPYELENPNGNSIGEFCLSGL

Chain of Cytochrome P450 2C19 (P33261 whole entry): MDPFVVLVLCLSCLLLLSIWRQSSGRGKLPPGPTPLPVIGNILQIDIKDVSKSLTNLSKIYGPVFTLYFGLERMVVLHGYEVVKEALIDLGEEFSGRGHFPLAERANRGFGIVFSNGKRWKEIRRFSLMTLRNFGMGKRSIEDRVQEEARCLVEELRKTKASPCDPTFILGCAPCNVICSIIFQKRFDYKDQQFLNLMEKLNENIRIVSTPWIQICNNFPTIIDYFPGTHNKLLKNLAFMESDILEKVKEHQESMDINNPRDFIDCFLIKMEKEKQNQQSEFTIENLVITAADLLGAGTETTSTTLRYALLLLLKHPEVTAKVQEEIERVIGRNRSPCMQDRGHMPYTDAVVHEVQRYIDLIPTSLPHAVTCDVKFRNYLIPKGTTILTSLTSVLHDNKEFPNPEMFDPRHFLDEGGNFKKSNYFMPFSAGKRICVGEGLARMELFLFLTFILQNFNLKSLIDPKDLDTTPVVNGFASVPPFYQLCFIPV
Chain of Cytochrome P450 2C9 (P11712 whole entry): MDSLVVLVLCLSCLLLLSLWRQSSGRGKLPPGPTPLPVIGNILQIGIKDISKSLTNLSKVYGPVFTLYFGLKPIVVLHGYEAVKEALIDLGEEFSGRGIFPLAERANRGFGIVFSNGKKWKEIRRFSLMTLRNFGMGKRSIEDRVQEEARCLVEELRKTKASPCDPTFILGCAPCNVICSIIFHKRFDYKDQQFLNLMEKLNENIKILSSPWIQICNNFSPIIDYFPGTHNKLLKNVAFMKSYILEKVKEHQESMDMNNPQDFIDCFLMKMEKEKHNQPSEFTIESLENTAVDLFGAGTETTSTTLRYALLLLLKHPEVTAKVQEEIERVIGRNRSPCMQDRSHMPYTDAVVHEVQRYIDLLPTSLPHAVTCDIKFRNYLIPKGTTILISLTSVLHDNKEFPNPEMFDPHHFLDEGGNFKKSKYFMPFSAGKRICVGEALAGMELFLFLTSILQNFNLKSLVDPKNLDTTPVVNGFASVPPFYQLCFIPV

SMILES | EC50 [1] | EC50 [2] | IC50 (H9c2) | further results
Fc1ccc2c(c1)C1C=CCC1C(c1cc3c(cc1Br)OCO3)N2 (stereo not given) | > 300 µM (not active) | > 300 µM (not active) | – | AC50 (Cytochrome P450 2C19): 0.316 µM (inconclusive); AC50 (Cytochrome P450 2C9): 1.78 µM (inconclusive)
O=C(CCc1nc(O)c2ccccc2n1)Nc1ccc(F)c([N+](=O)[O-])c1 | – | – | > 79 µM (inactive) | –
Cc1ccc(-c2nnc(O)c3ccccc23)cc1S(=O)(=O)Nc1ccccc1 | – | – | 21.3 µM (active) | –
CN1CC=C2C(C#N)=C(N)C(C#N)(C#N)C(c3ccncc3)C2C1 (stereo not given) | 52.9 µM (inconclusive) | 7.73 µM (active) | – | –
Nc1n[nH]c(Sc2ccc([N+](=O)[O-])cc2[N+](=O)[O-])n1 | 85.7 µM (active) | 30.1 µM (active) | – | –
Cc1n[nH]c2c1C(c1c(C)nn(-c3ccccc3)c1C)C(C#N)=C(N)O2 (stereo not given) | – | – | – | AC50 [3]: 18.6 µM (active); EC50 (Protein RecA): 12.5 µM (active)
COc1cccc2cc(-c3cc(=O)oc4ccc(OCC(C)=O)cc34)oc12 | – | – | > 79 µM (inactive) | –
CCCCn1c(N)c(Br)c(=O)[nH]c1=O | – | – | > 79 µM (inactive) | –
Cc1n[nH]c(N=Nc2ccc(O)cc2)n1 | > 300 µM (not active) | 4.83 µM (active) | – | –
CCOC1(OCC)C(c2ccc(Cl)cc2)C(C#N)(C#N)C1(OCC)OCC (stereo not given) | – | – | – | AC50 [3]: 148 µM (active); EC50 (Protein RecA): > 380 µM (inconclusive)
CC(C)(C)c1cnnn1-c1ccc(C(=O)CCl)cc1 | – | – | – | AC50 [3]: 4.17 µM (active); EC50 (Protein RecA): 2.89 µM (active)
CCOC(=O)/C(C#N)=C1/SC(C)C(=O)N1c1ccc(Br)cc1 (stereo not given) | – | – | – | AC50 [3]: 21 µM (active); EC50 (Protein RecA): 11.1 µM (active)
O=C(CCC(=O)N1CCN(C2CCCCC2)CC1)Nc1nnc(C(F)(F)F)s1 | – | – | > 79 µM (inactive) | –
Cc1nc(N2CCN(S(=O)(=O)c3cccc4nonc34)CC2)c2c3c(sc2n1)CCCC3 | – | – | > 79 µM (inactive) | –
CCCCc1ccc(/C=C2\C(=O)ON=C2c2ccccc2)s1 | 68 µM (active) | 87.7 µM (active) | – | –
CCOC(=O)Cc1nc2ccccc2n(CC#N)c1=O | > 300 µM (not active) | > 300 µM (not active) | – | –
CCOC(=O)[C@]1(C#N)[C@@H]2C=CC(C(C)=O)=CN2[C@@H](C(N)=O)[C@@H]1c1ccsc1 | 2.5 µM (active) | 12.3 µM (active) | – | –
c1ccc(-c2nc(-n3ccnc3)nc(-n3ccnc3)n2)cc1 | – | – | > 79 µM (inactive) | –
Cc1ccc(N(CC(=O)Nc2ccc(-c3nc4ccc(C)cc4s3)cc2)S(C)(=O)=O)cc1 | – | – | – | EC50 [4]: 1.19 µM (active); EC50 (H4): > 120 µM (not active)
Cc1nc(N2CCN(Cc3ccccc3)CC2)c(C#N)c2c1COC(C)(C)C2 | 94.5 µM (active) | 108 µM (active) | – | –
NS(=O)(=O)c1ccc(N/C=C2/C(=O)N(c3nccs3)C(=O)c3ccccc32)cc1 | – | – | > 79 µM (inactive) | –
O=C(NCc1ccc2c(c1)OCO2)c1nnc(O)c2ccccc12 | – | – | > 79 µM (inactive) | –
CCOC(=O)C1CCN(c2cc3c(cc2NC(=O)c2ccc(F)cc2)n(C)c(=O)n3C)CC1 | – | – | 16.7 µM (active) | –
Cc1ccc(C(=O)C2C(c3ccc(-c4ccccc4[N+](=O)[O-])o3)NC(=O)NC2(O)C(F)(F)F)cc1 (stereo not given) | – | – | – | AC50 [3]: 5.13 µM (active); EC50 (Protein RecA): 11.6 µM (active)
C/C(=N\NC(=O)c1nnn(-c2nonc2N)c1CSc1ccc(C)cc1)c1cccnc1 | – | – | > 79 µM (inactive) | –
CCOc1ccc(NC(=O)CN(C)C(=O)Cc2nnc(O)c3ccccc23)cc1OCC | – | – | > 79 µM (inactive) | –
O=C(OCC(=O)N1CCc2ccccc21)c1nnc(O)c2ccccc12 | – | – | 12.3 µM (active) | –
COc1ccc(OC)c(/C=c2\sc3nc(-c4cccs4)nn3c2=O)c1 | > 300 µM (not active) | > 300 µM (inconclusive) | – | EC50 [5]: 6.32 µM (active)
CCOC(=O)N1CCC(c2cc(=O)n(-c3ccccc3)[nH]2)CC1 | – | – | – | AC50 [3]: 3.66 µM (active); EC50 (Protein RecA): 2.51 µM (active)
CCO/C(C)=N/n1c2nc3ccccc3nc2c2c(=O)n(C3CCCC3)c(C)nc21 | > 300 µM (not active) | > 300 µM (not active) | – | –
